Source: PubChem BioAssay (NCI)
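Assay format: 96-well plates, 48-hour exposure. TGI denotes the concentration required for complete inhibition of growth.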

Legend:
Assay in all cases: growth of human tumour cells (NCI), 48 h
[1] = tested on: HS 578T breast
[2] = tested on: SF-539 CNS
[3] = tested on: OVCAR-4 ovarian
[4] = tested on: BT-549 breast
[5] = tested on: NCI-H522 lung
[6] = tested on: UACC-257 melanoma
[7] = tested on: SNB-19 CNS
[8] = tested on: HCC-2998 colon
[9] = tested on: TK-10 renal
[10] = tested on: SF-295 CNS
[11] = tested on: UO-31 renal
[12] = tested on: PC-3 prostate
[13] = tested on: HCT-116 colon
[14] = tested on: M14 melanoma
[15] = tested on: T-47D breast
[16] = tested on: CCRF-CEM leukemia
[17] = tested on: SR leukemia
[18] = tested on: NCI-H23 lung
[19] = tested on: SF-268 CNS
[20] = tested on: IGROV1 ovarian
[21] = tested on: OVCAR-3 ovarian
[22] = tested on: OVCAR-5 ovarian
[23] = tested on: SN12C renal
[24] = tested on: SK-OV-3 ovarian
[25] = tested on: NCI/ADR-RES ovarian
[26] = tested on: LOX IMVI melanoma
[27] = tested on: MCF7 breast
[28] = tested on: EKVX NSCLC
[29] = tested on: HL-60(TB) leukemia
[30] = tested on: SK-MEL-2 melanoma
[31] = tested on: DU-145 prostate
[32] = tested on: MOLT-4 leukemia
[33] = tested on: ACHN renal
[34] = tested on: MDA-N
[35] = tested on: UACC-62 melanoma
[36] = tested on: KM12 colon
[37] = tested on: RXF 393 renal
[38] = tested on: HT29 colon
[39] = tested on: A498 renal
[40] = tested on: MDA-MB-231 breast
[41] = tested on: MDA-MB-435
[42] = tested on: MALME-3M melanoma
[43] = tested on: COLO 205 colon
[44] = tested on: K-562 leukemia
[45] = tested on: A549 NSCLC
[46] = tested on: U251 CNS
[47] = tested on: SW-620 colon
[48] = tested on: SK-MEL-28 melanoma
[49] = tested on: CAKI-1 renal
[50] = tested on: 786-0 renal
[51] = tested on: HOP-92 NSCLC
[52] = tested on: NCI-H460 lung
[53] = tested on: OVCAR-8 ovarian
[54] = tested on: SNB-75 CNS
[55] = tested on: HCT-15 colon
[56] = tested on: SK-MEL-5 melanoma
[57] = tested on: HOP-62 NSCLC
[58] = tested on: NCI-H226 lung
[59] = tested on: RPMI-8226 leukemia

Work on `CCNCCCNc1c2ccccc2nc2ccccc12` yielded a TGI [1] of 3.13 µM, a TGI [2] of 1.21 µM and a TGI [3] of 3.2 µM. For the same compound, the TGI [4] was 10.5 µM, the TGI [5] was 700 nM and the TGI [6] was 1.7 µM. It also gave a TGI [7] of 2.98 µM, a TGI [8] of 0.643 µM and a TGI [9] of 16 µM. It also gave a TGI [10] of 2.81 µM, a TGI [11] of 2.63 µM and a TGI [12] of 0.816 µM. The TGI [13] was 8.36 µM, the TGI [14] was 0.95 µM and the TGI [15] was 3.35 µM. The TGI [16] was 10.1 µM, the TGI [17] was 1.83 µM and the TGI [18] was 2140 nM. It also gave a TGI [19] of 4.47 µM, a TGI [20] of 4.3 µM and a TGI [21] of 2 µM. The TGI [22] was 1.04 µM, the TGI [23] was 2.2 µM and the TGI [24] was 6.55 µM. For the same compound, the TGI [25] was 10.2 µM, the TGI [26] was 1.08 µM and the TGI [27] was 0.625 µM. It also gave a TGI [28] of 21.2 µM, a TGI [29] of 54.9 µM and a TGI [30] of 1.95 µM. For the same compound, the TGI [31] was 4.01 µM, the TGI [32] was over 100 µM and the TGI [33] was 0.47 µM. It also gave a TGI [34] of 1.26 µM, a TGI [35] of 1.62 µM and a TGI [36] of 2.04 µM. For the same compound, the TGI [37] was 2830 nM, the TGI [38] was over 100 µM and the TGI [39] was 3.2 µM. The TGI [40] was 2.5 µM, the TGI [41] was 1.77 µM and the TGI [42] was 2260 nM. The TGI [43] was 0.761 µM, the TGI [44] was 1.64 µM and the TGI [45] was 3.38 µM. It also gave a TGI [46] of over 100 µM, a TGI [47] of 1.46 µM and a TGI [48] of 1.48 µM. The TGI [49] was 1.23 µM, the TGI [50] was 5.39 µM and the TGI [51] was 3.11 µM. For the same compound, the TGI [52] was 585 nM, the TGI [53] was 3.7 µM and the TGI [54] was 1580 nM. The TGI [55] was 1.54 µM, the TGI [56] was 1.47 µM and the TGI [57] was 2.37 µM.
`C/C=C(/C)C(=O)O[C@H]1CCN2CC=C(COC(=O)[C@@](O)([C@H](C)OC)C(C)(C)O)[C@H]12` was tested, and the TGI [1] was over 100 µM, the TGI [2] was over 100 µM and the TGI [3] was over 100 µM. For the same compound, the TGI [4] was over 100 µM, the TGI [5] was over 100000 nM and the TGI [6] was over 100 µM. It also gave a TGI [7] of over 100 µM, a TGI [8] of over 100 µM and a TGI [9] of over 100 µM. The TGI [10] was over 100 µM, the TGI [11] was over 100 µM and the TGI [12] was over 100 µM. The TGI [13] was over 100 µM, the TGI [14] was over 100 µM and the TGI [15] was over 100 µM. For the same compound, the TGI [16] was over 100 µM, the TGI [17] was over 100 µM and the TGI [18] was over 100000 nM. It also gave a TGI [19] of over 100 µM, a TGI [20] of over 100 µM and a TGI [21] of over 100 µM. It also gave a TGI [58] of over 100 µM, a TGI [22] of over 100 µM and a TGI [23] of over 100 µM. It also gave a TGI [24] of over 100 µM, a TGI [25] of over 100 µM and a TGI [26] of over 100 µM. The TGI [27] was over 100 µM, the TGI [28] was over 100 µM and the TGI [29] was over 100 µM. For the same compound, the TGI [30] was over 100 µM, the TGI [31] was over 100 µM and the TGI [32] was over 100 µM. The TGI [33] was over 100 µM, the TGI [34] was over 100 µM and the TGI [35] was over 100 µM. It also gave a TGI [36] of over 100 µM, a TGI [38] of over 100 µM and a TGI [39] of over 100 µM. It also gave a TGI [40] of over 100 µM, a TGI [41] of over 100 µM and a TGI [43] of over 100 µM. The TGI [44] was over 100 µM, the TGI [45] was over 100 µM and the TGI [46] was over 100 µM. The TGI [47] was over 100 µM, the TGI [48] was over 100 µM and the TGI [49] was over 100 µM. It also gave a TGI [50] of over 100 µM, a TGI [51] of over 100 µM and a TGI [59] of over 100 µM. It also gave a TGI [53] of over 100 µM, a TGI [54] of over 100000 nM and a TGI [55] of over 100 µM. For the same compound, the TGI [56] was over 100 µM and the TGI [57] was over 100 µM.
Compound `COc1nc(-c2c[nH]c3ccccc23)cnc1N` has a TGI [1] of 54.2 µM, a TGI [2] of over 100 µM and a TGI [3] of over 100 µM. The TGI [4] was over 100 µM, the TGI [6] was 51.7 µM and the TGI [7] was over 100 µM. The TGI [8] was over 100 µM, the TGI [9] was over 100 µM and the TGI [10] was over 100 µM. The TGI [11] was over 100 µM, the TGI [12] was over 100 µM and the TGI [13] was 55.7 µM. For the same compound, the TGI [14] was 94.8 µM, the TGI [15] was 82.8 µM and the TGI [16] was 14.8 µM. It also gave a TGI [17] of 41.1 µM, a TGI [19] of over 100 µM and a TGI [20] of over 100 µM. For the same compound, the TGI [21] was over 100 µM, the TGI [22] was over 100 µM and the TGI [23] was 43.5 µM. For the same compound, the TGI [24] was over 100 µM, the TGI [25] was over 100 µM and the TGI [26] was over 100 µM. It also gave a TGI [27] of 84.1 µM, a TGI [28] of 61.5 µM and a TGI [29] of 31.5 µM. It also gave a TGI [30] of 81.6 µM, a TGI [31] of 70.1 µM and a TGI [32] of 54.9 µM. The TGI [33] was over 100 µM, the TGI [34] was 48.9 µM and the TGI [35] was 33.1 µM. It also gave a TGI [36] of over 100 µM, a TGI [38] of 46.2 µM and a TGI [39] of 38.5 µM. For the same compound, the TGI [40] was 59.1 µM, the TGI [41] was over 100 µM and the TGI [43] was over 100 µM. The TGI [44] was over 100 µM, the TGI [45] was over 100 µM and the TGI [46] was over 100 µM. It also gave a TGI [47] of over 100 µM, a TGI [48] of 64.6 µM and a TGI [49] of over 100 µM. For the same compound, the TGI [50] was 36.4 µM, the TGI [51] was 23.9 µM and the TGI [52] was over 100000 nM. It also gave a TGI [59] of 39.6 µM, a TGI [53] of over 100 µM and a TGI [55] of over 100 µM. It also gave a TGI [56] of over 100 µM and a TGI [57] of over 100 µM.
